The text below walks through data of patent US20210038545A1 (priority 2018, published 2021).

The test system of assay [1] is S. pneumoniae. To be noted: mice colonized with IAV microbiota; 30 hrs after challenge; FIG. 4A.
Assay [2] has as its system S. pneumoniae. Conditions: IAV (H3N2)-infected mice as printed; acetate from day 2 p.i.; 1×10^3 CFUs at 7 dpi; 30 hrs later; FIG. 4B.
Assay [3] relates to S. pneumoniae. Conditions: mouse, in vivo.
Assay [4] has as its system respiratory bacterial (including pneumococcal) and fungal infections. Conditions: Ciarlo et al., 2016; cited from earlier work.

In the case of `CC(=O)O` [acetate], the “protective effect of acetate in Ffa2−/− mice” value with S. pneumoniae serotype 1 (Ffa2−/− mice relative to FFA2-competent mice, FIG. 1B) is given as “significantly reduced”. For the same molecule, the “number of bacteria in the spleen” value in the assay with S. pneumoniae serotype 1 (acetate 200 mM drinking water for five days before 1×10^6 CFUs i.n., 30 hours after challenge, FIG. 1A lower panel) was “lowered”. Besides, in the assay with S. pneumoniae serotype 1 (acetate 200 mM drinking water for five days before 1×10^6 CFUs i.n., 30 hours after challenge, vs vehicle, FIG. 1A upper panel), the “number of bacteria in the lungs” value is on record as “significantly reduced”. In the assay with S. pneumoniae [1], the “number of pneumococci in lungs” value was “lower number” and the “systemic dissemination of pneumococci out of the lungs” value is “lowered”. In the assay on S. pneumoniae [2], the “bacterial load in the lung” value was “significant lower” and the “bacterial load in the spleen” value is listed as “significant lower”. In the assay with S. pneumoniae [3], the “bacterial loads in the lung” value is recorded as “significantly reduced”, the “bacterial loads in the spleen” value is “significantly reduced” and the “survival rate of double-infected mice” value is “significant enhancement”.
For the molecule `CCC(=O)O` [propionate], the “modulation of host defenses against respiratory bacterial and fungal infections” value in assay [4] is listed as “failed to modulate”.
